Patent US20260131007A1, “Mannose 6-Phosphate Receptor Binding Compounds for the Degradation of Extracellular Proteins” (Avilar Therapeutics, Inc., priority 2023, published 2026)

What was measured:
[1] = target: T1, hIGF-IIR and IgG1 (ternary complex) (Homo sapiens, UniProt P01857+P11717); test: HTRF-based ternary complex formation assay for hIGF-IIR targeting Extracellular Protein Degraders; type: binding
T1 construct: purchased R&D Systems 6418-GR
Source text: The ternary complex formation assay is designed to identify and determine the potency of Extracellular Protein Degrader molecules which can induce the formation of ternary complex between the Extracellular Protein Degrader hIGF-IIR. Titrating Extracellular Protein Degrader to fixed amount of hIGF-IIR results in a bell-shaped curve (except molecules whose binary complex affinity between Extracellular Protein Degrader and hIGF-IIR). The peak mean represents Extracellular Protein Degrader concentration at which maximum ternary complex is formed. Too much or too little Extracellular Protein Degrader leads to decreased ternary complex formation due to formation of binary complex (Hook effect). Dose response of Extracellular Protein Degrader compounds (16-point 3-fold dilution series, 100X) were prepared by Echo Acoustic Liquid Handler (Beckman Coulter Life Sciences) using 384-well LDV microplate. Then 200 nL of the solutions were transferred to an OptiPlate 384-well microplate (PerkinElmer, 6007290). To the assay plate, 10 μL working solution containing 60 nM of Biotinylated-IgG1 (Viva 20211108) and 60 nM of His-tagged hIGF-IIR (R&D Systems, 6418-GR) in assay buffer 50 mM Tris, pH 7.5, 150 mM NaCl, 50 mM CaCl2, 0.01% Tween-20 were added. The plate was incubated for 60 min at room temperature with gentle shaking to allow molecular interaction to reach equilibration. Following this, 10 μL of HTRF detection solution containing 15 nM Streptavidin-d2 (PerkinElmer, 610SADLA) and 0.7 nM MAb Anti 6HIS—Tb cryptate (PerkinElmer, 61HISTLA) in PPI Terbium detection buffer (PerkinElmer, 61DB10RDF) were added. The assay plate was incubated at room temperature with gentle shaking for 60 min to allow HTRF signal to develop. The plate was gently spun on a centrifuge then placed on an EnVision plate reader (Perkin Elmer, EnVision 2104) to read fluorescence ratio of 665 nm/615 nm. Data were analyzed by fitting with Bell-shaped non-linear regression model using GraphPad Prism (GraphPad Software, LLC; version 9.4.1). Mean fluorescence intensity is graphed versus compound concentration and the EC50 for TCF is calculated from the inflection point of the curve (GraphPad).

K562 cells = test: Ternary complex formation (TCF) in K562 cells, flow cytometry with AF488-labeled human IgG; type: cell-based; details: AF488-labeled human IgG 300 nM, 4° C., 1 hour
Method: K562 cells were seeded in 96-well assay plate using K562 cell medium, then compounds and AF488-labeled human IgG (final concentration of 300 nM) were added at 4° C. and incubated for 1 hour. Afterwards, the cells were washed once with 1×PBS+0.1% BSA (Cold) and centrifuged at 1000 rpm for 5 minutes. Next, cells were re-suspended in 150 μL 1×PBS+0.1% BSA and ran flow cytometry on iQue® Screener PLUS.

IgG = test: Uptake and degradation in K562 cells (Western blot); type: cell-based, human; details: K562 cells treated with compound and IgG; FIG. 14-17
Method: On day one, cells were harvested, counted, and seeded 1 million/well in 6 well plates for each cell line. On day two, cells were treated with compounds and IgG (Sigma, Cat #14506 dissolved in medium). Treated cells were washed three times with PBS, followed by addition of 200 μL of RIPA buffer (+HALT protease and phosphatase inhibitors) per well. Lysates were left on ice for 5 minutes then were collected into microcentrifuge tubes using a cell scraper. Lysates were then kept on a shaker for 30-60 minutes at 4° C. followed by centrifugation at 14,000 rpm at 4° C. for 15 minutes. Then, supernatants were transferred to fresh tubes and total protein concentration of each sample was determined using Pierce BCA kit. Next, 25 ug total protein of each sample was resolved on a 4-20% gels and transferred to PVDF membranes. Membranes were blocked in TBST+5% milk (made fresh) for one hour while shaking at room temperature. Then, the first antibody was added in TBST+5% milk at 4° C. overnight: a) Rabbit anti-human IgG, Abcam; Cat #ab181236-1:1000, b) anti-β-actin, Cell signaling Tech, Cat #3700S)-1:3000. On the next day, membranes were washed with TBST 10 minutes each for three times. Later, the second antibody was added in TBST+5% milk at room temperature over one hour: a) IRDye 800CW Goat anti Rabbit IgG, Licor, Cat #926-32211)-1:10,000; b) IRDye 680RD Goat anti Mouse IgG (Licor Cat #926-68078)-1:10,000. Then, membranes were washed with TBST 10 minutes each for three times. The results were detected by Licor. Data from the uptake and degradation assay is shown in FIG. 14, FIG. 15, FIG. 16, and FIG. 17.

human IgG (hIgG) = test: DMPK study: degradation of coadministered human IgG in rats; type: in vivo; details: male SD rats, IgG 200 mg/kg IV, compound IV an hour later; FIG. 11, FIG. 12
Method: The dose formulation of IgG at 200 mg/kg was administered via IV injection to male SD rats, and Compound 5 was administered via IV injection an hour later (after IgG dosing). About 0.2 mL of blood was collected via jugular vein at each time point and was transferred into pre-cooled low binding EP tubes containing 4 μL of K2-EDTA (0.5 M) as anti-coagulant placed on wet ice. After blood was collected, the samples were processed for plasma by centrifugation at approximately 4° C., 3200 g for 10 minutes, the plasma was obtained within 30 minutes of blood collection. Then the plasma was transferred to two clean low binding EP tubes (50 μL each, one for PK, one for PD) and quickly frozen over dry ice and kept below −60° C. or lower for LC-MS/MS analysis. Plasma concentration versus time data was plotted in graph and analyzed by non-compartmental approaches using the Phoenix WinNonlin 6.3 software program. Related PK parameters were calculated according to dosing route, e.g. CL, Vdss and C0 for intravenous administration, Cmax, Tmax or % F for extravascular administration, and T1/2, AUC(0-1), AUC(0-inf), MRT(0-1), MRT(0-inf) for all routes. The quantification of human IgG concentration in animal plasma was conducted using human IgG ELISA kit. Plotted pharmacokinetic and pharmacodynamic data can be found in FIG. 10, FIG. 11, FIG. 12, and FIG. 13.

CC(C)C[C@@H]1NC(=O)[C@H](Cc2cnc[nH]2)NC(=O)[C@H](Cc2c[nH]c3ccccc23)NC(=O)[C@H](C)NC(=O)[C@@H]2CSSC[C@H](NC(=O)[C@H](Cc3c[nH]c4ccccc34)CC(=O)[C@H](C(C)C)NC(=O)[C@H](CC(C)C)NC(=O)[C@H](CCC(=O)O)NC(=O)CNC1=O)C(=O)N[C@@H]([C@@H](C)O)C(=O)N1CCC[C@@H]1C(=O)N1C[C@@H](NC(=O)COCCOCCOCC(=O)NC(COCCC(=O)NCCOCCn3cc(CCO[C@H]4O[C@H](CCP(=O)(O)O)[C@@H](O)[C@H](O)[C@@H]4O)nn3)(COCCC(=O)NCCOCCn3cc(CCO[C@H]4O[C@H](CCP(=O)(O)O)[C@@H](O)[C@H](O)[C@@H]4O)nn3)COCCC(=O)NCCOCCn3cc(CCO[C@H]4O[C@H](CCP(=O)(O)O)[C@@H](O)[C@H](O)[C@@H]4O)nn3)C[C@H]1C(=O)N[C@@H](CC(=O)O)C(=O)N2 [Compound 5]
EC50 [1]: < 0.05 µM | EC50 (K562 cells): 0.05 to 0.25 µM | degradation of IgG (gel electrophoresis image) (IgG): degradation of IgG | degradation of coadministered human IgG (percent of initial hIgG over time) (human IgG (hIgG)): degradation of coadministered human IgG
